Reference: ChEMBL document CHEMBL3885881, “DrugMatrix”

Organism: Rattus norvegicus
Assay: DrugMatrix - Regimen: Daily Repeat
Assay type: toxicity, organism-based, Sprague-Dawley
Design: regimen Daily Repeat, gender Male, age 6-8 weeks
Conditions: in vivo, po, route oral GAVAGE, vehicle .5 % CMC; for ABSOLUTE BASOPHIL / ABSOLUTE EOSINOPHIL / ABSOLUTE LYMPHOCYTE / ABSOLUTE MONOCYTE / ABSOLUTE SEGMENTED NEUTROPHIL / BASOPHIL / EOSINOPHIL / ERYTHROCYTE COUNT / HEMATOCRIT / HEMOGLOBIN / LEUKOCYTE COUNT / LYMPHOCYTE / MEAN CORPUSCULAR HEMOGLOBIN / MEAN CORPUSCULAR HEMOGLOBIN CONCENTRATION / MEAN CORPUSCULAR VOLUME / MONOCYTE / NEUTROPHIL / NUCLEATED RED BLOOD CELLS / PLATELET COUNT: tissue Blood; for ALANINE AMINOTRANSFERASE / ALBUMIN / ALKALINE PHOSPHATASE / ASPARTATE AMINOTRANSFERASE / BLOOD UREA NITROGEN / CARBON DIOXIDE / CHLORIDE / CHOLESTEROL / CREATINE PHOSPHOKINASE / CREATININE / GLUCOSE / LACTATE DEHYDROGENASE / LIPASE / PHOSPHORUS / POTASSIUM / SODIUM / TOTAL BILIRUBIN / TOTAL PROTEIN / URIC ACID: tissue Plasma
[1] = 30 mg/kg, 72 h, dose level Low, time 3 day
[2] = 30 mg/kg, 120 h, dose level Low, time 5 day
[3] = 570 mg/kg, 72 h, dose level High, time 3 day
[4] = 570 mg/kg, 120 h, dose level High, time 5 day

## O=C(O)COc1ccc(C(=O)c2cccs2)c(Cl)c1Cl
[1]
  ABSOLUTE BASOPHIL: 0 CELLS/uL
  ABSOLUTE EOSINOPHIL: 0 CELLS/uL
  ABSOLUTE LYMPHOCYTE: 7024 CELLS/uL
  ABSOLUTE MONOCYTE: 269 CELLS/uL
  ABSOLUTE SEGMENTED NEUTROPHIL: 840.33 CELLS/uL
  BASOPHIL: 0%
  EOSINOPHIL: 0%
  ERYTHROCYTE COUNT: 5.29 x10E6/uL
  HEMATOCRIT: 33.2%
  HEMOGLOBIN: 12.83 G/DL
  LEUKOCYTE COUNT: 8.13 x10E3/uL
  LYMPHOCYTE: 86.33%
  MEAN CORPUSCULAR HEMOGLOBIN: 24.27 pg
  MEAN CORPUSCULAR HEMOGLOBIN CONCENTRATION: 38.67 G/DL
  MEAN CORPUSCULAR VOLUME: 62.8 fL
  MONOCYTE: 3%
  NEUTROPHIL: 10.67%
  NUCLEATED RED BLOOD CELLS: 0.67 /100WBC
  PLATELET COUNT: 1021.33 x10E3/uL
  ALANINE AMINOTRANSFERASE: 60.33 u/L
  ALBUMIN: 4.17 G/DL
  ALKALINE PHOSPHATASE: 394.67 u/L
  ASPARTATE AMINOTRANSFERASE: 94.33 u/L
  BLOOD UREA NITROGEN: 14.67 mg/dL
  CARBON DIOXIDE: 33.67 mmol/L
  CHLORIDE: 99.67 MEQ/L
  CHOLESTEROL: 74 mg/dL
  CREATINE PHOSPHOKINASE: 524.67 u/L
  CREATININE: 0.26 mg/dL
  GLUCOSE: 144.67 mg/dL
  LACTATE DEHYDROGENASE: 159 u/L
  LIPASE: 9.33 u/L
  PHOSPHORUS: 12.93 mg/dL
  POTASSIUM: 6.21 MEQ/L
  SODIUM: 144.4 MEQ/L
  TOTAL BILIRUBIN: 0.17 mg/dL
  TOTAL PROTEIN: 6.2 G/DL
  URIC ACID: 0.5 mg/dL
[2]
  ABSOLUTE BASOPHIL: 0 CELLS/uL
  ABSOLUTE EOSINOPHIL: 52.67 CELLS/uL
  ABSOLUTE LYMPHOCYTE: 10475.33 CELLS/uL
  ABSOLUTE MONOCYTE: 92 CELLS/uL
  ABSOLUTE SEGMENTED NEUTROPHIL: 1380 CELLS/uL
  BASOPHIL: 0%
  EOSINOPHIL: 0.33%
  ERYTHROCYTE COUNT: 5.51 x10E6/uL
  HEMATOCRIT: 35.03%
  HEMOGLOBIN: 13.53 G/DL
  LEUKOCYTE COUNT: 12 x10E3/uL
  LYMPHOCYTE: 87.67%
  MEAN CORPUSCULAR HEMOGLOBIN: 24.53 pg
  MEAN CORPUSCULAR HEMOGLOBIN CONCENTRATION: 38.63 G/DL
  MEAN CORPUSCULAR VOLUME: 63.57 fL
  MONOCYTE: 0.67%
  NEUTROPHIL: 11.33%
  NUCLEATED RED BLOOD CELLS: 0 /100WBC
  PLATELET COUNT: 1276 x10E3/uL
  ALANINE AMINOTRANSFERASE: 51 u/L
  ALBUMIN: 4.23 G/DL
  ALKALINE PHOSPHATASE: 420.67 u/L
  ASPARTATE AMINOTRANSFERASE: 78.33 u/L
  BLOOD UREA NITROGEN: 13 mg/dL
  CARBON DIOXIDE: 35.67 mmol/L
  CHLORIDE: 97.33 MEQ/L
  CHOLESTEROL: 80 mg/dL
  CREATINE PHOSPHOKINASE: 446.67 u/L
  CREATININE: 0.27 mg/dL
  GLUCOSE: 136 mg/dL
  LACTATE DEHYDROGENASE: 169.67 u/L
  LIPASE: 8.33 u/L
  PHOSPHORUS: 12.7 mg/dL
  POTASSIUM: 6.46 MEQ/L
  SODIUM: 142.87 MEQ/L
  TOTAL BILIRUBIN: 0.2 mg/dL
  URIC ACID: 0.8 mg/dL
[3]
  ABSOLUTE BASOPHIL: 0 CELLS/uL
  ABSOLUTE EOSINOPHIL: 0 CELLS/uL
  ABSOLUTE LYMPHOCYTE: 14484.67 CELLS/uL
  ABSOLUTE MONOCYTE: 271.67 CELLS/uL
  ABSOLUTE SEGMENTED NEUTROPHIL: 1143.67 CELLS/uL
  BASOPHIL: 0%
  EOSINOPHIL: 0%
  ERYTHROCYTE COUNT: 5.25 x10E6/uL
  HEMATOCRIT: 32.4%
  HEMOGLOBIN: 12.33 G/DL
  LEUKOCYTE COUNT: 15.9 x10E3/uL
  LYMPHOCYTE: 91.33%
  MEAN CORPUSCULAR HEMOGLOBIN: 23.47 pg
  MEAN CORPUSCULAR HEMOGLOBIN CONCENTRATION: 38.03 G/DL
  MEAN CORPUSCULAR VOLUME: 61.6 fL
  MONOCYTE: 1.67%
  NEUTROPHIL: 7%
  NUCLEATED RED BLOOD CELLS: 0 /100WBC
  PLATELET COUNT: 1320.33 x10E3/uL
  ALANINE AMINOTRANSFERASE: 61.67 u/L
  ALBUMIN: 4.03 G/DL
  ALKALINE PHOSPHATASE: 478 u/L
  ASPARTATE AMINOTRANSFERASE: 93 u/L
  BLOOD UREA NITROGEN: 14.67 mg/dL
  CARBON DIOXIDE: 35.67 mmol/L
  CHLORIDE: 97 MEQ/L
  CHOLESTEROL: 89.67 mg/dL
  CREATINE PHOSPHOKINASE: 605.33 u/L
  CREATININE: 0.23 mg/dL
  GLUCOSE: 141.33 mg/dL
  LACTATE DEHYDROGENASE: 128 u/L
  LIPASE: 9 u/L
  PHOSPHORUS: 10.17 mg/dL
  POTASSIUM: 5.26 MEQ/L
  SODIUM: 142.77 MEQ/L
  TOTAL BILIRUBIN: 0.2 mg/dL
  TOTAL PROTEIN: 6.27 G/DL
  URIC ACID: 0.47 mg/dL
[4]
  ABSOLUTE BASOPHIL: 0 CELLS/uL
  ABSOLUTE EOSINOPHIL: 0 CELLS/uL
  ABSOLUTE LYMPHOCYTE: 19963.33 CELLS/uL
  ABSOLUTE MONOCYTE: 319.33 CELLS/uL
  ABSOLUTE SEGMENTED NEUTROPHIL: 2417.33 CELLS/uL
  BASOPHIL: 0%
  EOSINOPHIL: 0%
  ERYTHROCYTE COUNT: 5.25 x10E6/uL
  HEMATOCRIT: 32.67%
  HEMOGLOBIN: 12.47 G/DL
  LEUKOCYTE COUNT: 22.7 x10E3/uL
  LYMPHOCYTE: 88.33%
  MEAN CORPUSCULAR HEMOGLOBIN: 23.73 pg
  MEAN CORPUSCULAR HEMOGLOBIN CONCENTRATION: 38.17 G/DL
  MEAN CORPUSCULAR VOLUME: 62.33 fL
  MONOCYTE: 1.33%
  NEUTROPHIL: 10.33%
  NUCLEATED RED BLOOD CELLS: 0 /100WBC
  PLATELET COUNT: 1428 x10E3/uL
  ALANINE AMINOTRANSFERASE: 48 u/L
  ALBUMIN: 4.13 G/DL
  ALKALINE PHOSPHATASE: 359.33 u/L
  ASPARTATE AMINOTRANSFERASE: 74 u/L
  BLOOD UREA NITROGEN: 15.67 mg/dL
  CARBON DIOXIDE: 34.33 mmol/L
  CHLORIDE: 100 MEQ/L
  CHOLESTEROL: 70.33 mg/dL
  CREATINE PHOSPHOKINASE: 268.67 u/L
  CREATININE: 0.29 mg/dL
  GLUCOSE: 144 mg/dL
  LACTATE DEHYDROGENASE: 153.33 u/L
  LIPASE: 6.67 u/L
  PHOSPHORUS: 11 mg/dL
  POTASSIUM: 6.13 MEQ/L
  SODIUM: 144.77 MEQ/L
  TOTAL BILIRUBIN: 0.2 mg/dL
  TOTAL PROTEIN: 6.1 G/DL
  URIC ACID: 1.3 mg/dL
